Where two headings read alike, the source gives them in different places. Values belong to the compound of their own block, whether it stands above or below them.
What was measured:
API particle size (d90) = assay type: physicochemical; conditions: API particles
[1] = API stability studies (stress, long term, accelerated; enantiomer interconversion); assay type: physicochemical
Source text: Polymorphism has been observed for Apremilast and seven polymorphic forms (designated A-G) of the active substance were identified.
An amorphous form generally provides better solubility and bioavailability than the crystalline form and may be useful for formulations which can have better solubility, and compressibility etc. which are important for formulation and product manufacturing.

[2] = on storage and in vivo; cited from earlier work
[3] = previously reported dosage form; cited from earlier work
[4] = cited from earlier work
[5] = Solubility of Tofacitinib citrate in different pH media and water; assay type: physicochemical; conditions: 37 °C, read-out: Solubility @37° C., mg/mL for 6 hours
Description: The active substance is a white to off-white solid, slightly soluble in water (2.9 mg/mL) and non-hygroscopic. Tofacitinib contains two chiral centers at C3 and C4. The active substance is the enantiomer with absolute configuration (R) for both the C-3 and the C-4 positions. The overall stereochemistry of tofacitinib is therefore considered as critical and is assured by the quality of the starting materials and the route of synthesis design.
Polymorphism has been studied for the active substance. The crystalline citrate salt, Form A, has been the sole development form of the active substance used in all toxicology and clinical studies. The solubility Tofacitinib citrate is pH dependent, the solubility is decried with pH increasing. […] The pH dependent solubility can lead to pH-dependent in vivo drug release from sustained release matrices. Drug release varies as a function of movement through segments of the gastrointestinal tract with different pH. […] The Tofacitinib citrate gastric retention drug delivery system that would provide the highest bioavailability are very desirable because the drug active has highest solubility in the stomach.

[6] = slightly soluble; cited from earlier work

particle size d90 (API particle size (d90)): 8 μm
stability after exposing to different stress test conditions ([1]; stress test conditions): stable
SMILES: CCOc1cc([C@@H](CS(C)(=O)=O)N2C(=O)c3cccc(NC(C)=O)c3C2=O)ccc1OC [Apremilast Form B]

particle size d90 (API particle size (d90); listed as Apremilast amorphous form): 22 μm
stability after 6 months ([1]; stress conditions, long term 25° C./60% RH and accelerated 40° C./75% RH): stable
SMILES: CCOc1cc([C@@H](CS(C)(=O)=O)N2C(=O)c3cccc(NC(C)=O)c3C2=O)ccc1OC [Apremilast amorphous]

SMILES: CCOc1cc([C@@H](CS(C)(=O)=O)N2C(=O)c3cccc(NC(C)=O)c3C2=O)ccc1OC [Apremilast, (+) enantiomer of 2-[1-(3-ethoxy-4-methoxyphenyl)-2-methanesulfonylethyl]-4-acetylaminoisoindolin-1,3-dione]
interconversion of (S)-enantiomer to (R)-enantiomer [2]: no interconversion
share of absorption taking place in the proximal small bowel [3]: about 93%
solubility in aqueous buffers ([4]; irrespective of pH range): practically insoluble
Biopharmaceutical Classification System class ([4]; low solubility and low permeability): BCS Class 4

SMILES: C[C@@H]1CCN(C(=O)CC#N)C[C@@H]1N(C)c1ncnc2[nH]ccc12.O=C(O)CC(O)(CC(=O)O)C(=O)O [Tofacitinib citrate, 3-((3R,4R)-4-methyl-3-(methyl(7H-pyrrolo[2,3-d]pyrimidin-4 yl)amino)piperidin-1-yl)-3-oxopropanenitrile, 2-hydroxypropane-1,2,3-tricarboxylic acid]
solubility at 6 h ([5]; pH 1.18, simulated gastric fluid, thermodynamic from solid, 0.1N HCl, final pH observed 1.18): 27.8 mg/mL
solubility at 6 h ([5]; pH 4.9, thermodynamic from solid, Water, final pH observed 4.90): 2.9 mg/mL
solubility at 6 h ([5]; pH 4.5 medium, aqueous buffer, thermodynamic from solid, pH 4.5, final pH observed 4.50): 4.57 mg/mL
solubility at 6 h ([5]; pH 6.8 medium, aqueous buffer, thermodynamic from solid, pH 6.8, final pH observed 6.78): 2.03 mg/mL
solubility in water [6]: 2900 µg/mL
